ChEMBL document CHEMBL4011597, “Synthesis, screening and docking of fused pyrano[3,2-d]pyrimidine derivatives as xanthine oxidase inhibitor” (Eur J Med Chem, 2017)

Assays:
[1] = target: T1, Xanthine dehydrogenase/oxidase (Bos taurus, UniProt P80457); test: Inhibition of bovine xanthine oxidase assessed as reduction in uric acid formation at 10 uM using xanthine as substrate pretreated for 5 mins followed by substrate addition measured by UV-vis spectrophotometric method relative to control; details: cattle
T1 sequence (P80457 whole entry): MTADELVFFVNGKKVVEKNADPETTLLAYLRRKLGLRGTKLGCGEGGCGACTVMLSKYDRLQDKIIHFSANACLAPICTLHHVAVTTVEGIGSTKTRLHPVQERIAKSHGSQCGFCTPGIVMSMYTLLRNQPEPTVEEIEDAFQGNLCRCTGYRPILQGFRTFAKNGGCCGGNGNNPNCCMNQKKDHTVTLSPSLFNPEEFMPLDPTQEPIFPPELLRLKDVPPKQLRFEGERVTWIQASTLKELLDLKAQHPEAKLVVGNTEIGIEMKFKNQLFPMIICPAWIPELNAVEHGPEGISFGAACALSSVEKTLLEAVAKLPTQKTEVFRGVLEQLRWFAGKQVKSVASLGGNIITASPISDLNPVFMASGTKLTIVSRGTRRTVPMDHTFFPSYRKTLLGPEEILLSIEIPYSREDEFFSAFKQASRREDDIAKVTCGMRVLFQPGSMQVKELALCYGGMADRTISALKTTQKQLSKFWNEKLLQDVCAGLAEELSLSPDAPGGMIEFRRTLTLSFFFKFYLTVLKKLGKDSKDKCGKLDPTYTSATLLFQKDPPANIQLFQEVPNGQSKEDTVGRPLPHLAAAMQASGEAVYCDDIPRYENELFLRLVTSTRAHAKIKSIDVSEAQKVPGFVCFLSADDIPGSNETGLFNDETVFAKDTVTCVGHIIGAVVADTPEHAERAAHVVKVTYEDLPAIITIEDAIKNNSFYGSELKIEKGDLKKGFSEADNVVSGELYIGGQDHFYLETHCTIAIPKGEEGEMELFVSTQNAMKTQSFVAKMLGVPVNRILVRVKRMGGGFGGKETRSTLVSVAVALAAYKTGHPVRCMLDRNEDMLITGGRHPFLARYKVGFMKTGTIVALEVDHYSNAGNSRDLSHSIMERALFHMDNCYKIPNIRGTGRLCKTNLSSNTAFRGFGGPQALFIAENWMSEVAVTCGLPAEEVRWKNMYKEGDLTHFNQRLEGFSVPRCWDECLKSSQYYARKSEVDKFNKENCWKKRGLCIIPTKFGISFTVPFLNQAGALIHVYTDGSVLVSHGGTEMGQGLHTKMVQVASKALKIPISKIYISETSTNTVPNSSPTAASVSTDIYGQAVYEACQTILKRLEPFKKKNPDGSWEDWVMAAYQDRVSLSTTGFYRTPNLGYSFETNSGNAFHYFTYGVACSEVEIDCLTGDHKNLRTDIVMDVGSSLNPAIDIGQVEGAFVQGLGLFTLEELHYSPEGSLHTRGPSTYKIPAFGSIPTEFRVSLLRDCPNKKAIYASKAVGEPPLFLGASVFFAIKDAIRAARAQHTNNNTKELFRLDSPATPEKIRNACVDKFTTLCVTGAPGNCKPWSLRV

[2] = target: T1, Xanthine dehydrogenase/oxidase; test: Inhibition of bovine xanthine oxidase assessed as reduction in uric acid formation at 100 uM using xanthine as substrate pretreated for 5 mins followed by substrate addition measured by UV-vis spectrophotometric method relative to control; details: cattle
[3] = target: T1, Xanthine dehydrogenase/oxidase; test: Inhibition of bovine xanthine oxidase assessed as reduction in uric acid formation at 1 uM using xanthine as substrate pretreated for 5 mins followed by substrate addition measured by UV-vis spectrophotometric method relative to control; details: cattle
[4] = target: T1, Xanthine dehydrogenase/oxidase; test: Inhibition of bovine xanthine oxidase assessed as reduction in uric acid formation using xanthine as substrate pretreated for 5 mins followed by substrate addition measured by UV-vis spectrophotometric method

| Compound | inhibition at 10 µM [1] [%] | inhibition at 100 µM [2] [%] | inhibition at 1 µM [3] [%] | IC50 [4] [µM] |
| --- | --- | --- | --- | --- |
| COc1ccc(Nc2ncnc3c2C(c2ccc(Cl)cc2)C2=C(CCCC2=O)O3)cc1 (stereo not drawn) | 34.5 | 69.4 | 22 | 55 |
| COc1ccc(Nc2ncnc3c2C(c2ccccc2OC)C2=C(CCCC2=O)O3)cc1 (stereo not drawn) | 43.2 | 86.5 | 34.8 | 24 |
| O=c1cc(-c2ccc(O)cc2)oc2cc(O)cc(O)c12 [APIGENIN] | – | – | – | 10.2 |
| COc1ccc(Nc2ncnc3c2C(c2ccccc2)C2=C(CCCC2=O)O3)cc1 (stereo not drawn) | 37.5 | 75.4 | 29.1 | 40 |
| COc1ccc(Nc2ncnc3c2C(c2ccc(O)c(O)c2)c2c(c(=O)oc4ccccc24)O3)cc1 (stereo not drawn) | 45.9 | 90.4 | 35 | 18 |
| COc1ccc(Nc2ncnc3c2C(c2ccc([N+](=O)[O-])cc2)c2c(c(=O)oc4ccccc24)O3)cc1 (stereo not drawn) | 30.5 | 61.9 | 22.2 | 64 |
| COc1ccc(Nc2ncnc3c2C(c2ccc(O)c(OC)c2)c2c(c(=O)oc4ccccc24)O3)cc1 (stereo not drawn) | 47.2 | 92.3 | 33.2 | 15 |
| COc1ccc(Nc2ncnc3c2C(c2cccc(Cl)c2)c2c(c(=O)oc4ccccc24)O3)cc1 (stereo not drawn) | 34.5 | 69.6 | 23.2 | 54 |
| COc1ccc(Nc2ncnc3c2C(c2ccc(Cl)cc2)c2c(c(=O)oc4ccccc24)O3)cc1 (stereo not drawn) | 33.5 | 67.2 | 21.3 | 56 |
| COc1ccc(Nc2ncnc3c2C(c2cccc(O)c2)c2c(c(=O)oc4ccccc24)O3)cc1 (stereo not drawn) | 39.5 | 81.3 | 28.5 | 35 |
| COc1ccc(Nc2ncnc3c2C(c2cc(OC)c(OC)c(OC)c2)c2c(c(=O)oc4ccccc24)O3)cc1 (stereo not drawn) | 37.2 | 74.5 | 26.2 | 42 |
| COc1ccc(Nc2ncnc3c2C(c2ccc(OC)c(OC)c2)c2c(c(=O)oc4ccccc24)O3)cc1 (stereo not drawn) | 48 | 94 | 36.7 | 17 |
| COc1ccc(Nc2ncnc3c2C(c2ccc(Br)cc2)c2c(c(=O)oc4ccccc24)O3)cc1 (stereo not drawn) | 32.4 | 65.8 | 22.2 | 60 |
| COc1ccc(Nc2ncnc3c2C(c2cccc(C)c2)C2=C(CCCC2=O)O3)cc1 (stereo not drawn) | 40.2 | 80.5 | 31 | 35 |
| COc1ccc(Nc2ncnc3c2C(c2ccc(OC)c(OC)c2)C2=C(CCCC2=O)O3)cc1 (stereo not drawn) | 57.5 | 94.2 | 29.3 | 8 |
| COc1ccc(Nc2ncnc3c2C(c2ccc(O)cc2)c2c(c(=O)oc4ccccc24)O3)cc1 (stereo not drawn) | 41.2 | 82.4 | 30.9 | 30 |
| COc1ccc(Nc2ncnc3c2C(c2ccc(OC)c(OC)c2)c2c(n[nH]c2C)O3)cc1 (stereo not drawn) | 31.4 | 63.7 | 23.6 | 64 |
| COc1ccc(Nc2ncnc3c2C(c2ccccc2)c2c(c(=O)oc4ccccc24)O3)cc1 (stereo not drawn) | 36.4 | 72.8 | 25.1 | 40 |
| COc1ccc(Nc2ncnc3c2C(c2cccc(Cl)c2)C2=C(CCCC2=O)O3)cc1 (stereo not drawn) | 34.6 | 70.2 | 29.2 | 52 |

| Compound | inhibition at 10 µM [1] [%] | inhibition at 100 µM [2] [%] | inhibition at 1 µM [3] [%] | IC50 [4] [µM] |
| --- | --- | --- | --- | --- |
| COc1ccc(Nc2ncnc3c2C(c2ccc(OC)cc2)C2=C(CCCC2=O)O3)cc1 (stereo not drawn) | 43.5 | 87.4 | 32.3 | 25 |
| COc1ccc(Nc2ncnc3c2C(c2cccc([N+](=O)[O-])c2)c2c(c(=O)oc4ccccc24)O3)cc1 (stereo not drawn) | 31.5 | 63.6 | 20.2 | 65 |
| COc1ccc(Nc2ncnc3c2C(c2ccc(O)c(OC)c2)c2c(n[nH]c2C)O3)cc1 (stereo not drawn) | 32.5 | 65.5 | – | 60 |
| COc1ccc(Nc2ncnc3c2C(c2ccc(OC)cc2)c2c(c(=O)oc4ccccc24)O3)cc1 (stereo not drawn) | 43.7 | 85.3 | 32.4 | 24 |
| COc1ccc(Nc2ncnc3c2C(c2cccc(C)c2)c2c(c(=O)oc4ccccc24)O3)cc1 (stereo not drawn) | 39.1 | 78.2 | 28.7 | 37 |
| COc1ccc(Nc2ncnc3c2C(c2cc(OC)c(OC)c(OC)c2)C2=C(CCCC2=O)O3)cc1 (stereo not drawn) | 38 | 76.8 | 27.4 | 40 |
| COc1ccc(Nc2ncnc3c2C(c2cccc(O)c2)C2=C(CCCC2=O)O3)cc1 (stereo not drawn) | 41.2 | 82.3 | 29.4 | 30 |
| COc1ccc(Nc2ncnc3c2C(c2cc(OC)c(OC)c(OC)c2)c2c(ccc4ccccc24)O3)cc1 (stereo not drawn) | – | 25.8 | – | – |
| COc1ccc(Nc2ncnc3c2C(c2cc(OC)c(OC)c(OC)c2)c2c(n[nH]c2C)O3)cc1 (stereo not drawn) | – | 47.9 | – | – |
| COc1ccc(Nc2ncnc3c2C(c2cccc([N+](=O)[O-])c2)C2=C(CCCC2=O)O3)cc1 (stereo not drawn) | 32.7 | 64.2 | 21.9 | 60 |
| COc1ccc(Nc2ncnc3c2C(c2ccc(O)c(O)c2)c2c(n[nH]c2C)O3)cc1 (stereo not drawn) | 31.6 | 60.6 | 23.5 | 68 |
| COc1ccc(Nc2ncnc3c2C(c2ccccc2)c2ccc4ccccc4c2O3)cc1 (stereo not drawn) | – | 20.5 | – | – |
| COc1ccc(Nc2ncnc3c2C(c2ccc(O)c(OC)c2)c2c(ccc4ccccc24)O3)cc1 (stereo not drawn) | – | 33.8 | – | – |
| COc1ccc(Nc2ncnc3c2C(c2cccc(O)c2)c2ccc4ccccc4c2O3)cc1 (stereo not drawn) | – | 27.4 | – | – |
| COc1ccc(Nc2ncnc3c2C(c2ccc(Br)cc2)C2=C(CCCC2=O)O3)cc1 (stereo not drawn) | 33.5 | 67 | 23.1 | 58 |
| COc1ccc(Nc2ncnc3c2C(c2ccc(F)cc2)c2ccc4ccccc4c2O3)cc1 (stereo not drawn) | – | 19 | – | – |
| COc1ccc(Nc2ncnc3c2C(c2cc4ccccc4[nH]2)c2c(n[nH]c2C)O3)cc1 (stereo not drawn) | – | 11.2 | – | – |
| COc1ccc(Nc2ncnc3c2C(c2ccc(O)cc2)C2=C(CCCC2=O)O3)cc1 (stereo not drawn) | 42.4 | 84.8 | 30.5 | 28 |
| COc1ccc(Nc2ncnc3c2C(c2cccc([N+](=O)[O-])c2)c2ccc4ccccc4c2O3)cc1 (stereo not drawn) | – | 13 | – | – |

| Compound | inhibition at 10 µM [1] [%] | inhibition at 100 µM [2] [%] | inhibition at 1 µM [3] [%] | IC50 [4] [µM] |
| --- | --- | --- | --- | --- |
| COc1ccc(Nc2ncnc3c2C(c2ccc(F)cc2)C2=C(CCCC2=O)O3)cc1 (stereo not drawn) | 35.5 | 71.1 | 27.1 | 50 |
| COc1ccc(Nc2ncnc3c2C(c2cccc([N+](=O)[O-])c2)c2c(n[nH]c2C)O3)cc1 (stereo not drawn) | – | 28.9 | – | – |
| COc1ccc(Nc2ncnc3c2C(c2ccc([N+](=O)[O-])cc2)C2=C(CCCC2=O)O3)cc1 (stereo not drawn) | 31.5 | 63.5 | 20 | 67 |
| COc1ccc(Nc2ncnc3c2C(c2ccc(Br)cc2)c2c(n[nH]c2C)O3)cc1 (stereo not drawn) | – | 30.3 | – | – |
| COc1ccc(Nc2ncnc3c2C(c2cccc(Cl)c2)c2ccc4ccccc4c2O3)cc1 (stereo not drawn) | – | 17.1 | – | – |
| COc1ccc(Nc2ncnc3c2C(c2cc4ccccc4[nH]2)c2c(c(=O)oc4ccccc24)O3)cc1 (stereo not drawn) | – | 18.4 | – | – |
| COc1ccc(Nc2ncnc3c2C(c2ccc(O)c(O)c2)C2=C(CCCC2=O)O3)cc1 (stereo not drawn) | 56.5 | 93.8 | 27.3 | 8.5 |
| COc1ccc(Nc2ncnc3c2C(c2ccc(Cl)cc2)c2ccc4ccccc4c2O3)cc1 (stereo not drawn) | – | 16.7 | – | – |
| COc1ccc(Nc2ncnc3c2C(c2cccc(O)c2)c2c(n[nH]c2C)O3)cc1 (stereo not drawn) | – | 50.1 | – | – |
| COc1ccc(Nc2ncnc3c2C(c2cc4ccccc4[nH]2)C2=C(CCCC2=O)O3)cc1 (stereo not drawn) | – | 19.3 | – | – |
| COc1ccc(Nc2ncnc3c2C(c2ccc(OC)cc2)c2c(n[nH]c2C)O3)cc1 (stereo not drawn) | 29.3 | 58.4 | 20.1 | – |
| COc1ccc(Nc2ncnc3c2C(c2cccc4ccccc24)c2c(c(=O)oc4ccccc24)O3)cc1 (stereo not drawn) | – | 10 | – | – |
| COc1ccc(Nc2ncnc3c2C(c2ccc(O)c(OC)c2)C2=C(CCCC2=O)O3)cc1 (stereo not drawn) | 60 | 95 | 30.3 | 7 |
| COc1ccc(Nc2ncnc3c2C(c2ccc(O)c(O)c2)c2ccc4ccccc4c2O3)cc1 (stereo not drawn) | – | 36.5 | – | – |
| COc1ccc(Nc2ncnc3c2C(c2ccc([N+](=O)[O-])cc2)c2c(ccc4ccccc24)O3)cc1 (stereo not drawn) | – | 11 | – | – |
| COc1ccc(Nc2ncnc3c2C(c2ccc(F)cc2)c2c(c(=O)oc4ccccc24)O3)cc1 (stereo not drawn) | 35.1 | 70.2 | 24.5 | 50 |
| COc1ccc(Nc2ncnc3c2C(c2ccccc2OC)c2c(c(=O)oc4ccccc24)O3)cc1 (stereo not drawn) | 41.1 | 83.6 | 30.2 | 29 |
| COc1ccc(Nc2ncnc3c2C(c2ccc(O)c(OC)c2)c2ccc4ccccc4c2O3)cc1 (stereo not drawn) | – | 33.2 | – | – |
| COc1ccc(Nc2ncnc3c2C(c2ccc(Cl)cc2)c2c(ccc4ccccc24)O3)cc1 (stereo not drawn) | – | 17.2 | – | – |
